Experimental data as given in patent US12071441B2, “10-(di(phenyl)methyl)-4-hydroxy-8,9,9A,10-tetrahydro-7H-pyrrolo[1′,2′:4,5]pyrazino[1,2-b]pyridazine-3,5-dione derivatives and related compounds as inhibitors of the orthomyxovirus replication for treating influenza” (Novartis AG, priority 2018, dated 2024).

Assays:
Assay in all cases: microbe, parasite or virus in culture
Format in all cases: cell-based
[1] = test system: influenza A virus minigenome (PB2, PB1, PA, NP; luciferase reporter) in 293T cells, RNP_Hubei; details: HEK-293T, 48 h
[2] = test system: influenza A virus minigenome (PB2, PB1, PA, NP; luciferase reporter) in 293T cells, RNP_CAL; details: HEK-293T, 48 h, read-out: RNP_CAL_EC50
[3] = test system: influenza A virus minigenome (PB2, PB1, PA, NP; luciferase reporter) in 293T cells, RNP_Alaska; details: HEK-293T, 48 h

Structure (SMILES) | EC50 [1] [nM] | EC50 [2] [nM] | EC50 [3] [nM]
COc1cccc([C@@H](c2cccc(F)c2F)[C@H]2[C@H]3CCCN3C(=O)c3c(O)c(=O)cnn32)c1 [Example 29, (9aR,10S)-10-((S)-(2,3-difluorophenyl)(3-methoxyphenyl)methyl)-4-hydroxy-8,9,9a,10-tetrahydro-7H-pyrrolo[1′,2′:4,5]pyrazino[1,2-b]pyridazine-3,5-dione] | 100 to 1000 | 100 to 1000 | 100 to 1000
COC(=O)OCOc1c2n(ncc1=O)[C@@H]([C@H](c1ccccc1)c1cccc(F)c1F)[C@H]1CCCN1C2=O [Example 30, (((9aR,10S)-10-((R)-(2,3-difluorophenyl)(phenyl)methyl)-3,5-dioxo-3,5,8,9,9a,10-hexahydro-7H-pyrrolo[1′,2′:4,5]pyrazino[1,2-b]pyridazin-4-yl)oxy)methyl methyl carbonate] | < 100 | < 100 | < 100
CC(C)C(=O)Oc1c2n(ncc1=O)[C@@H]([C@H](c1ccccc1)c1cccc(F)c1F)[C@H]1CCCN1C2=O [Example 31, (9aR,10S)-10-((R)-(2,3-difluorophenyl)(phenyl)methyl)-3,5-dioxo-3,5,8,9,9a,10-hexahydro-7H-pyrrolo[1′,2′:4,5]pyrazino[1,2-b]pyridazin-4-yl isobutyrate] | < 100 | < 100 | < 100
CC(C)C(=O)OCOc1c2n(ncc1=O)[C@@H]([C@H](c1ccccc1)c1cccc(F)c1F)[C@H]1CCCN1C2=O [Example 32, (((9aR,10S)-10-((R)-(2,3-difluorophenyl)(phenyl)methyl)-3,5-dioxo-3,5,8,9,9a,10-hexahydro-7H-pyrrolo[1′,2′:4,5]pyrazino[1,2-b]pyridazin-4-yl)oxy)methyl isobutyrate] | < 100 | < 100 | < 100
COC(=O)OC(C)Oc1c2n(ncc1=O)[C@@H]([C@H](c1ccccc1)c1cccc(F)c1F)[C@H]1CCCN1C2=O (stereo partly drawn) [Example 33, 1-(((9aR,10S)-10-((R)-(2,3-difluorophenyl)(phenyl)methyl)-3,5-dioxo-3,5,8,9,9a,10-hexahydro-7H-pyrrolo[1′,2′:4,5]pyrazino[1,2-b]pyridazin-4-yl)oxy)ethyl methyl carbonate] | < 100 | < 100 | 100 to 1000
CC(C)OC(=O)Oc1c2n(ncc1=O)[C@@H]([C@H](c1ccccc1)c1cccc(F)c1F)[C@H]1CCCN1C2=O [Example 34, (9aR,10S)-10-((R)-(2,3-difluorophenyl)(phenyl)methyl)-3,5-dioxo-3,5,8,9,9a,10-hexahydro-7H-pyrrolo[1′,2′:4,5]pyrazino[1,2-b]pyridazin-4-yl isopropyl carbonate] | < 100 | < 100 | < 100
CN(C)C(=O)Oc1c2n(ncc1=O)[C@@H]([C@H](c1ccccc1)c1cccc(F)c1F)[C@H]1CCCN1C2=O [Example 35, (9aR,10S)-10-((R)-(2,3-difluorophenyl)(phenyl)methyl)-3,5-dioxo-3,5,8,9,9a,10-hexahydro-7H-pyrrolo[1′,2′:4,5]pyrazino[1,2-b]pyridazin-4-yl dimethylcarbamate] | ≥ 1000 | ≥ 1000 | ≥ 1000
CN1CCN(C(=O)OCOc2c3n(ncc2=O)[C@@H]([C@H](c2ccccc2)c2cccc(F)c2F)[C@H]2CCCN2C3=O)CC1 [Example 36, (((9aR,10S)-10-((R)-(2,3-difluorophenyl)(phenyl)methyl)-3,5-dioxo-3,5,8,9,9a,10-hexahydro-7H-pyrrolo[1′,2′:4,5]pyrazino[1,2-b]pyridazin-4-yl)oxy)methyl 4-methylpiperazine-1-carboxylate] | ≥ 1000 | ≥ 1000 | ≥ 1000
COC(C)(C)CC(=O)Oc1c2n(ncc1=O)[C@@H]([C@H](c1ccccc1)c1cccc(F)c1F)[C@H]1CCCN1C2=O [Example 39, (9aR,10S)-10-((R)-(2,3-difluorophenyl)(phenyl)methyl)-3,5-dioxo-3,5,8,9,9a,10-hexahydro-7H-pyrrolo[1′,2′:4,5]pyrazino[1,2-b]pyridazin-4-yl 3-methoxy-3-methylbutanoate] | < 100 | < 100 | < 100
COC(C)(C)C(=O)Oc1c2n(ncc1=O)[C@@H]([C@H](c1ccccc1)c1cccc(F)c1F)[C@H]1CCCN1C2=O [Example 40, (9aR,10S)-10-((R)-(2,3-difluorophenyl)(phenyl)methyl)-3,5-dioxo-3,5,8,9,9a,10-hexahydro-7H-pyrrolo[1′,2′:4,5]pyrazino[1,2-b]pyridazin-4-yl 2-methoxy-2-methylpropanoate] | < 100 | < 100 | < 100
COC(=O)C(C)(C)OC(=O)OCOc1c2n(ncc1=O)[C@@H]([C@H](c1ccccc1)c1cccc(F)c1F)[C@H]1CCCN1C2=O [Example 42, methyl 2-((((((9aR,10S)-10-((R)-(2,3-difluorophenyl)(phenyl)methyl)-3,5-dioxo-3,5,8,9,9a,10-hexahydro-7H-pyrrolo[1′,2′:4,5]pyrazino[1,2-b]pyridazin-4-yl)oxy)methoxy)carbonyl)oxy)-2-methylpropanoate] | 100 to 1000 | 100 to 1000 | 100 to 1000
Cc1oc(=O)oc1COc1c2n(ncc1=O)[C@@H]([C@H](c1ccccc1)c1cccc(F)c1F)[C@H]1CCCN1C2=O [Example 43, (9aR,10S)-10-((R)-(2,3-difluorophenyl)(phenyl)methyl)-4-((5-methyl-2-oxo-1,3-dioxol-4-yl)methoxy)-8,9,9a,10-tetrahydro-7H-pyrrolo[1′,2′:4,5]pyrazino[1,2-b]pyridazine-3,5-dione] | < 100 | < 100 | < 100
CN1CCN(C(=O)Oc2c3n(ncc2=O)[C@@H]([C@H](c2ccccc2)c2cccc(F)c2F)[C@H]2CCCN2C3=O)CC1 [Example 44, (9aR,10S)-10-((R)-(2,3-difluorophenyl)(phenyl)methyl)-3,5-dioxo-3,5,8,9,9a,10-hexahydro-7H-pyrrolo[1′,2′:4,5]pyrazino[1,2-b]pyridazin-4-yl 4-methylpiperazine-1-carboxylate] | < 100 | 100 to 1000 | 100 to 1000
COC(=O)OCOc1c2n(ncc1=O)[C@@H]([C@H](c1cccc(F)c1)c1ccc(F)c(F)c1)[C@H]1CCCN1C2=O [Example 45, (((9aR,10S)-10-((R)-(3,4-difluorophenyl)(3-fluorophenyl)methyl)-3,5-dioxo-3,5,8,9,9a,10-hexahydro-7H-pyrrolo[1′,2′:4,5]pyrazino[1,2-b]pyridazin-4-yl)oxy)methyl methyl carbonate] | < 100 | < 100 | < 100
O=C(Oc1c2n(ncc1=O)[C@@H]([C@H](c1ccccc1)c1cccc(F)c1F)[C@H]1CCCN1C2=O)N1CCCCC1 [Example 48, (9aR,10S)-10-((R)-(2,3-difluorophenyl)(phenyl)methyl)-3,5-dioxo-3,5,8,9,9a,10-hexahydro-7H-pyrrolo[1′,2′:4,5]pyrazino[1,2-b]pyridazin-4-yl piperidine-1-carboxylate] | < 100 | < 100 | < 100
CC(C)(C)OC(=O)Oc1c2n(ncc1=O)[C@@H]([C@H](c1ccccc1)c1cccc(F)c1F)[C@H]1CCCN1C2=O [Example 49, tert-butyl ((9aR,10S)-10-((R)-(2,3-difluorophenyl)(phenyl)methyl)-3,5-dioxo-3,5,8,9,9a,10-hexahydro-7H-pyrrolo[1′,2′:4,5]pyrazino[1,2-b]pyridazin-4-yl) carbonate] | < 100 | < 100 | < 100
COCCOC(=O)Oc1c2n(ncc1=O)[C@@H]([C@H](c1ccccc1)c1cccc(F)c1F)[C@H]1CCCN1C2=O [Example 50, (9aR,10S)-10-((R)-(2,3-difluorophenyl)(phenyl)methyl)-3,5-dioxo-3,5,8,9,9a,10-hexahydro-7H-pyrrolo[1′,2′:4,5]pyrazino[1,2-b]pyridazin-4-yl (2-methoxyethyl) carbonate] | < 100 | < 100 | < 100
CCOC(=O)OCOc1c2n(ncc1=O)[C@@H]([C@H](c1ccccc1)c1cccc(F)c1F)[C@H]1CCCN1C2=O [Example 51, (((9aR,10S)-10-((R)-(2,3-difluorophenyl)(phenyl)methyl)-3,5-dioxo-3,5,8,9,9a,10-hexahydro-7H-pyrrolo[1′,2′:4,5]pyrazino[1,2-b]pyridazin-4-yl)oxy)methyl ethyl carbonate] | < 100 | < 100 | < 100
CC(C)OC(=O)OCOc1c2n(ncc1=O)[C@@H]([C@H](c1ccccc1)c1cccc(F)c1F)[C@H]1CCCN1C2=O [Example 52, (((9aR,10S)-10-((R)-(2,3-difluorophenyl)(phenyl)methyl)-3,5-dioxo-3,5,8,9,9a,10-hexahydro-7H-pyrrolo[1′,2′:4,5]pyrazino[1,2-b]pyridazin-4-yl)oxy)methyl isopropyl carbonate] | < 100 | < 100 | < 100
CCOC(=O)Oc1c2n(ncc1=O)[C@@H]([C@H](c1ccccc1)c1cccc(F)c1F)[C@H]1CCCN1C2=O [Example 53, (9aR,10S)-10-((R)-(2,3-difluorophenyl)(phenyl)methyl)-3,5-dioxo-3,5,8,9,9a,10-hexahydro-7H-pyrrolo[1′,2′:4,5]pyrazino[1,2-b]pyridazin-4-yl ethyl carbonate] | < 100 | < 100 | < 100
CC(C)(C)OC(=O)OCOc1c2n(ncc1=O)[C@@H]([C@H](c1ccccc1)c1cccc(F)c1F)[C@H]1CCCN1C2=O [Example 55, tert-butyl ((((9aR,10S)-10-((R)-(2,3-difluorophenyl)(phenyl)methyl)-3,5-dioxo-3,5,8,9,9a,10-hexahydro-7H-pyrrolo[1′,2′:4,5]pyrazino[1,2-b]pyridazin-4-yl)oxy)methyl) carbonate] | < 100 | 100 to 1000 | 100 to 1000
